The subject of one assay is AMO-1 xenograft. Briefly: AMO-1 xenograft model of multiple myeloma. Type of assay: in vivo. To be noted: Mus musculus, AMO1, 25 mg/kg/day, IP, QDx1, SCID/bg mice; for change in vivo at 25 mg/kg: read-out: TGD (%); for inhibition in vivo at 25 mg/kg: read-out: TGImax (%). The procedure: Tumors were size matched at approximately 200 mm^3. […] Tumor volume was estimated two to three times weekly. […] Mice were euthanized when tumor volume reached 3,000 mm3 or skin ulcerations occurred. Eight mice were housed per cage. Food and water were available ad libitum.
Tumor growth inhibition is calculated by 100*(1−Tv/Cv) where Tv and Cv are the mean tumor volumes of the treated and control groups, respectively.

Assay [1] concerns AMO-1 human multiple myeloma tumor cell line. Briefly: AMO-1 cell viability assay (CellTiter-Glo). Type of assay: cell-based. To be noted: AMO1, read-out: AMO-1 Viability IC50 (μM), 10% FBS, 24 hours of compound treatment. Background: In ATP-based viability assays light output follows the ATP content of the culture.
Protocol: (§1) In one exemplary set of conditions, NCI-H929 or AMO-1 (ATCC. Manassas, Va.) were plated 4.000 cells per well in 384-well tissue culture plates (Corning. Corning, N.Y.) in a total volume of 25 μL RPMI tissue culture medium supplemented with 10% fetal bovine serum (Sigma-Aldrich, St. Louis, Mo.) and treated with a 3-fold serial dilution of the compounds of interest with a Labcyte Echo from a final concentration of 10 μM to 0.0005 μM. Each concentration was tested in duplicate at least 3 independent times. A luminescent signal proportional to the number of viable cells following 24 hours of compound treatment was determined using the CellTiter-Glo® Luminescent Cell Viability Assay according to the manufacturer's recommendations (Promega Corp., Madison, Wis.). The plates were read in a Perkin Elmer Envision using a Luminescence protocol. To generate dose response curves the data is normalized to percent viability by setting the averages of the staurosporine (10 uM) and DMSO only control wells to 0% and (00)% viability respectively. The IC50 values for the compounds are generated by fitting the normalized data with Accelrys Assay Explorer 3.3 to a sigmoidal curve model using linear regression.
The test system of assay [2] is NCI-H929 human multiple myeloma tumor cell line. As to the kind of experiment: NCI-H929 cell viability assay (CellTiter-Glo). Type of assay: cell-based. To be noted: NCI-H929, read-out: H929 Viability IC50 (μM), 10% FBS, 24 hours of compound treatment.
Protocol: as §1
A further assay addresses GST-MCL-1 (Homo sapiens (Human), UniProt Q07820). As to the kind of experiment: TR-FRET MCL-1 binding assay (competition with probe F-Bak). The method, boiled down:
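Tested both in plain buffer and with 10% human serum. Top concentration 25 μM, 11 three-fold steps, 2 h room-temperature incubation of GST-MCL-1 with Tb-labelled anti-His antibody and F-Bak probe. Time-resolved FRET: 340 nm excitation, 520/525 and 495/510 nm emission.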
In general terms: Time-resolved FRET reads energy transfer from a long-lived donor to a nearby acceptor.

The mark [3] stands for this setting: read-out: MCL-1 Binding Ki (nM, 10% HS), in the presence of 10% HS.
The mark [4] stands for this setting: without HS, read-out: MCL-1 Binding Ki.

Each structure is given as a SMILES string. Like-named read-outs stand apart in the source and are kept apart here.

Sequence of GST-MCL-1 (Q07820 whole entry): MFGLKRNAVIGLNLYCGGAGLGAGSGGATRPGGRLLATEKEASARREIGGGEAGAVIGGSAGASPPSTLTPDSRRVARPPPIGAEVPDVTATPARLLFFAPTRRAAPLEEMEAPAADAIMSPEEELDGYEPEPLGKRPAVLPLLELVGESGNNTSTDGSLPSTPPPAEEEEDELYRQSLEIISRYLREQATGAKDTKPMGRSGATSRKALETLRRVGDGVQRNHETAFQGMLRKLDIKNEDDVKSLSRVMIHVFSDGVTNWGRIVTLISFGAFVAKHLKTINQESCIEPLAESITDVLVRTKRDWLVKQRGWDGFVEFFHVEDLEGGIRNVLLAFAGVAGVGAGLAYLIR

Take `Cc1c(Cl)c2c(Cl)c(C)c1-c1c(-c3ccc(F)cc3)sc3ncnc(c13)O[C@@H](C(=O)O)Cc1cc(ccc1OCc1ccnc(-c3ccccc3OCC3COC(C)(C)O3)n1)OC[C@@H](CN1CCN(C)CC1)O2` (stereo in doubt) [Example 3, (7R,16R)-19,23-dichloro-10-{[2-(2-{[(4R)-2,2-dimethyl-1,3-dioxolan-4-yl]methoxy}phenyl)pyrimidin-4-yl]methoxy}-1-(4-fluorophenyl)-20,22-dimethyl-16-[(4-methylpiperazin-1-yl)methyl]-7,8,15,16-tetrahydro-18,21-etheno-13,9-(metheno)-6,14,17-trioxa-2-thia-3,5-diazacyclononadeca[1,2,3-cd]indene-7-carboxylic acid]: the change in vivo at 25 mg/kg with AMO-1 xenograft amounted to 58%. Further, in the assay with AMO-1 xenograft, the inhibition in vivo at 25 mg/kg came out at 75%. The values for the IC50 in assay [1] and in assay [2] were 0.00026 µM and 0.0037 µM, respectively. The Ki at GST-MCL-1 (setting [3]) came out at 0.365 nM; on GST-MCL-1 (setting [4]), 0.033 nM.

Regarding `Cc1c(Cl)c2c(Cl)c(C)c1-c1c(-c3ccc(F)cc3)sc3ncnc(c13)O[C@@H](C(=O)O)Cc1cc(ccc1OCc1ccnc(-c3ccc(OC[C@H]4COC(C)(C)O4)cc3)n1)OC[C@@H](CN1CCN(C)CC1)O2` [Example 1, (7R,16R)-19,23-dichloro-10-{[2-(4-{[(4S)-2,2-dimethyl-1,3-dioxolan-4-yl]methoxy}phenyl)pyrimidin-4-yl]methoxy}-1-(4-fluorophenyl)-20,22-dimethyl-16-[(4-methylpiperazin-1-yl)methyl]-7,8,15,16-tetrahydro-18,21-etheno-13,9-(metheno)-6,14,17-trioxa-2-thia-3,5-diazacyclononadeca[1,2,3-cd]indene-7-carboxylic acid], the change in vivo at 25 mg/kg with AMO-1 xenograft came to 133%. For the same molecule, the inhibition in vivo at 25 mg/kg with AMO-1 xenograft was 95%. Besides, the IC50 in assay [1] stood at 0.00031 µM; in assay [2], 0.00502 µM. In addition, the Ki turned out to be 0.582 nM at GST-MCL-1 (setting [3]) and 0.042 nM at GST-MCL-1 (setting [4]).

As for `Cc1c(Cl)c2c(Cl)c(C)c1-c1c(-c3ccc(F)cc3)sc3ncnc(c13)O[C@@H](C(=O)O)Cc1cc(ccc1OCc1ccnc(-c3ccc(OC[C@@H]4COCCO4)cc3)n1)OC[C@@H](CN1CCN(C)CC1)O2` [Example 7, (7R,16R)-19,23-dichloro-10-{[2-(4-{[(2S)-1,4-dioxan-2-yl]methoxy}phenyl)pyrimidin-4-yl]methoxy}-1-(4-fluorophenyl)-20,22-dimethyl-16-[(4-methylpiperazin-1-yl)methyl]-7,8,15,16-tetrahydro-18,21-etheno-13,9-(metheno)-6,14,17-trioxa-2-thia-3,5-diazacyclononadeca[1,2,3-cd]indene-7-carboxylic acid], the change in vivo at 25 mg/kg with AMO-1 xenograft came out at 477%. In the assay with AMO-1 xenograft, the inhibition in vivo at 25 mg/kg was found to be 99%. Besides, the IC50 in assay [1] came to 0.000171 µM; in assay [2] it was 0.000406 µM. Further, the Ki worked out at 0.92 nM on GST-MCL-1 (setting [3]) and 0.036 nM on GST-MCL-1 (setting [4]).

For the molecule `Cc1c(Cl)c2c(Cl)c(C)c1-c1c(-c3ccc(F)cc3)sc3ncnc(c13)O[C@@H](C(=O)O)Cc1cc(ccc1OCc1ccnc(N3CCC(F)(COC[C@@H]4COCCO4)CC3)n1)OC[C@@H](CN1CCN(C)CC1)O2` [Example 8, (7R,16R)-19,23-dichloro-10-({2-[4-({[(2S)-1,4-dioxan-2-yl]methoxy}methyl)-4-fluoropiperidin-1-yl]pyrimidin-4-yl}methoxy)-1-(4-fluorophenyl)-20,22-dimethyl-16-[(4-methylpiperazin-1-yl)methyl]-7,8,15,16-tetrahydro-18,21-etheno-13,9-(metheno)-6,14,17-trioxa-2-thia-3,5-diazacyclononadeca[1,2,3-cd]indene-7-carboxylic acid], the change in vivo at 25 mg/kg with AMO-1 xenograft is 46%. Besides, the inhibition in vivo at 25 mg/kg in the assay on AMO-1 xenograft turned out to be 79%. For the same molecule, the IC50 in assay [1] came out at 0.00086 µM; in assay [2], 0.00176 µM. In addition, the Ki at GST-MCL-1 (setting [3]) came out at 2.27 nM; on GST-MCL-1 (setting [4]) it was 0.194 nM.

As for `Cc1c(Cl)c2c(Cl)c(C)c1-c1c(-c3ccc(F)cc3)sc3ncnc(c13)O[C@@H](C(=O)O)Cc1cc(ccc1OCc1ccnc([C@H]3CC[C@H](COC[C@@H]4COCCO4)CC3)n1)OC[C@@H](CN1CCN(C)CC1)O2` [Example 49, (7R,16R)-19,23-dichloro-10-({2-[(1S,4r)-4-({[(2R)-1,4-dioxan-2-yl]methoxy}methyl)cyclohexyl]pyrimidin-4-yl}methoxy)-1-(4-fluorophenyl)-20,22-dimethyl-16-[(4-methylpiperazin-1-yl)methyl]-7,8,15,16-tetrahydro-18,21-etheno-13,9-(metheno)-6,14,17-trioxa-2-thia-3,5-diazacyclononadeca[1,2,3-cd]indene-7-carboxylic acid], the IC50 in assay [1] stood at 0.000172 µM; in assay [2], 0.000314 µM. The figures for the Ki at GST-MCL-1 (setting [3]) and on GST-MCL-1 (setting [4]) were 0.128 nM and < 0.01 nM, respectively.

As to `Cc1c(Cl)c2c(Cl)c(C)c1-c1c(-c3ccc(F)cc3)sc3ncnc(c13)O[C@@H](C(=O)O)Cc1cc(ccc1OCc1ccnc([C@H]3CC[C@@H](COC[C@H]4COCCO4)CC3)n1)OC[C@@H](CN1CCN(C)CC1)O2` [Example 50, (7R,16R)-19,23-dichloro-10-({2-[(1S,4s)-4-({[(2S)-1,4-dioxan-2-yl]methoxy}methyl)cyclohexyl]pyrimidin-4-yl}methoxy)-1-(4-fluorophenyl)-20,22-dimethyl-16-[(4-methylpiperazin-1-yl)methyl]-7,8,15,16-tetrahydro-18,21-etheno-13,9-(metheno)-6,14,17-trioxa-2-thia-3,5-diazacyclononadeca[1,2,3-cd]indene-7-carboxylic acid], the results for the IC50 in assay [1] and in assay [2] were 0.000249 µM and 0.000255 µM, respectively. For the same molecule, the figures for the inhibitory constant (Ki) at GST-MCL-1 (setting [3]) and on GST-MCL-1 (setting [4]) were 0.249 nM and 0.022 nM, respectively.

In the case of `Cc1c(Cl)c2c(Cl)c(C)c1-c1c(-c3ccc(F)cc3)sc3ncnc(c13)O[C@@H](C(=O)O)Cc1cc(ccc1OCc1ccnc([C@H]3CC[C@H](COC[C@H]4COCCO4)CC3)n1)OC[C@@H](CN1CCN(C)CC1)O2` [Example 51, (7R,16R)-19,23-dichloro-10-({2-[(1R,4r)-4-({[(2S)-1,4-dioxan-2-yl]methoxy}methyl)cyclohexyl]pyrimidin-4-yl}methoxy)-1-(4-fluorophenyl)-20,22-dimethyl-16-[(4-methylpiperazin-1-yl)methyl]-7,8,15,16-tetrahydro-18,21-etheno-13,9-(metheno)-6,14,17-trioxa-2-thia-3,5-diazacyclononadeca[1,2,3-cd]indene-7-carboxylic acid], the figures for the IC50 in assay [1] and in assay [2] were 0.000267 µM and 0.000299 µM, respectively. For the same molecule, the results for the Ki on GST-MCL-1 (setting [3]) and on GST-MCL-1 (setting [4]) were 0.131 nM and < 0.01 nM, respectively.

For `Cc1c(Cl)c2c(Cl)c(C)c1-c1c(C3CCC3)sc3ncnc(c13)O[C@@H](C(=O)O)Cc1cc(ccc1OCc1ccnc([C@H]3CC[C@H](OC[C@H]4COCCO4)CC3)n1)OC[C@@H](CN1CCN(C)CC1)O2` [Example 52, (7R,16R)-19,23-dichloro-1-cyclobutyl-10-({2-[(1R,4r)-4-{[(2R)-1,4-dioxan-2-yl]methoxy}cyclohexyl]pyrimidin-4-yl}methoxy)-20,22-dimethyl-16-[(4-methylpiperazin-1-yl)methyl]-7,8,15,16-tetrahydro-18,21-etheno-13,9-(metheno)-6,14,17-trioxa-2-thia-3,5-diazacyclononadeca[1,2,3-cd]indene-7-carboxylic acid], the figures for the half-maximal inhibitory concentration (IC50) in assay [1] and in assay [2] were 0.000448 µM and 0.00118 µM, respectively. The Ki at GST-MCL-1 (setting [3]) is 0.72 nM; at GST-MCL-1 (setting [4]) it was < 0.01 nM.

For the molecule `COc1ccccc1-c1ccc(OC[C@@H]2COCCO2)c(COc2ccc3cc2C[C@H](C(=O)O)Oc2ncnc4sc(-c5ccc(F)cc5)c(c24)-c2c(C)c(Cl)c(c(Cl)c2C)O[C@H](CN2CCN(C)CC2)CO3)n1` [Example 53, (7R,16R)-19,23-dichloro-10-{[3-{[(2S)-1,4-dioxan-2-yl]methoxy}-6-(2-methoxyphenyl)pyridin-2-yl]methoxy}-1-(4-fluorophenyl)-20,22-dimethyl-16-[(4-methylpiperazin-1-yl)methyl]-7,8,15,16-tetrahydro-18,21-etheno-9,13-(metheno)-6,14,17-trioxa-2-thia-3,5-diazacyclononadeca[1,2,3-cd]indene-7-carboxylic acid], the IC50 in assay [1] is 0.311 µM; in assay [2], > 1 µM. Besides, the figures for the Ki at GST-MCL-1 (setting [3]) and on GST-MCL-1 (setting [4]) were 114 nM and 13.7 nM, respectively.

In general, IC50 refers to the concentration needed to halve the response being measured. A word on the Ki: it is a dissociation constant, usually derived from enzyme kinetics or from competition with a known ligand.
